According to paper PMC8757611, “Synthesis, biological evaluation, and molecular docking of new series of antitumor and apoptosis inducers designed as VEGFR-2 inhibitors” (Journal of Enzyme Inhibition and Medicinal Chemistry, 2022):

Experiments:
VEGFR-2 = tested on: VEGFR-2; design: method as in PMID 22153662; settings: cited from earlier work
WI-38 = experiment: Cytotoxicity against normal lung fibroblasts (MTT); assay type: cell-based; settings: normal human lung fibroblasts
Description: (§1) The antitumor assay was performed against the human cancer cell lines: HepG2, PC3, and MCF-7. The chemicals used in this test were supplied by Sigma-Aldrich with high analytical grade. National Cancer Institute (Cairo, Egypt) was the supplier of the cell lines tested which originally obtained from American Type Culture Collection (ATCC). MTT protocol was applied to quantitatively measure the antiproliferative activity of the new derivatives. In this test, the colour change is attributed to that the yellow tetrazolium bromide (MTT) is converted to formazan derivative which has purple colour. This biochemical reaction occurs only in viable cells by mitochondrial succinate dehydrogenase. The tested cells were initially cultured in RPMI-1640 medium with foetal bovine serum (10%). To the incubated cell, streptomycin (100 µg/mL) and penicillin (100 units/mL) were added in a 5% CO2 incubator at 37 °C. Then seeding of the cells was performed in a 96-well plate under 5% CO2 and at density of 1.0 × 10^4 cells/well at 37 °C for 48 h. Various non-toxic concentrations of the tested candidates were added and the cells were then incubated for further 24 h to the cells treated with the new compounds, MTT solution (20 µL at 5 mg/mL) was added, followed by 4 h incubation. One hundred microlitres of Dimethyl sulfoxide (DMSO) were added into each well to dissolve the purple formazan formed which is colorimetrically absorbed at 570 nm using a plate reader (EXL 800, USA). Finally, the percentages of cell viability was obtained as (A570 of treated samples/A570 of untreated sample) × 100.
Of note, the cytotoxicity against normal human lung fibroblasts cell line (WI-38) were examined for the nine selected compounds.

MCF-7 = experiment: In vitro antitumor MTT assay, MCF-7; assay type: cell-based, human; settings: for IC50: Homo sapiens, MCF7, MTT, mean ± S.D. of three experiments
Description: as §1

HepG2 [1] = experiment: In vitro antitumor MTT assay, HepG2; assay type: cell-based, human; settings: for IC50: Homo sapiens, HepG2, MTT, mean ± S.D. of three experiments
Description: as §1

PC3 = experiment: In vitro antitumor MTT assay, PC3; assay type: cell-based, human; settings: for IC50: Homo sapiens, PC-3, MTT, mean ± S.D. of three experiments
Description: as §1

VEGFR-2 kinase = target: T1, VEGFR-2 kinase (Homo sapiens, UniProt P35968); experiment: VEGFR-2 inhibition testing (ELISA kit); assay type: biochemical
T1 construct: purchased
Description: Enzyme linked immunosorbent assay (ELISA) technique was applied to human VEGFR-2 ELISA kit to calculate IC50 of all new derivatives against VEGFR-2 kinase. The antibody specific to the enzyme was planted on a 96 well microplate to which different micromolar concentrations of the positive control and the new compounds was added. […] Finally, stop solution (50 µL) was added and the reading was immediately determined at 450 nm. To get the standard curve, the concentrations used were presented on the X-axis and the corresponding absorbances were on the Y-axis.

[2] = tested on: human cancer cell lines HepG2, PC3, MCF-7; experiment: In vitro antitumor MTT assay, panel of HepG2, PC3 and MCF-7; assay type: cell-based; settings: range over HepG2, PC3 and MCF-7, read-out: IC50 against human cancer cell lines
Description: as §1

HepG2 [3] = experiment: Effect on apoptosis rate of HepG2 (Annexin V-FITC/PI); assay type: cell-based, human
Description: Apoptosis ratio of HepG2 treated with 9.6 µg of compound 15d in comparison with untreated HepG2 cells was calculated according to the reported method using Annexin V fluorescein isothiocyanate (V-FITC)/PI kit[36].

HepG2 [4] = experiment: Effect on cell cycle of HepG2 (PI flow cytometry); assay type: cell-based, human; settings: at its IC50
Description: The protocol reported by Wang et al.[35] was followed to determine the effect of 15d on cell cycle of HepG2. The cancer cells (2 × 10^5 cells) were seeded and incubated in each of six-well plates for 24 h. The cells were further incubated at 37 °C and 5% CO2 after addition of foetal bovine serum (FBS, 10%). The medium was replaced by DMSO solution (1% v/v) in which 9.6 µg of compound 15d was dissolved. Well plates were then incubated for 48 h and then rinsed with cold phosphate-buffered saline (PBS), fixed with ethanol (70%) and washed again with PBS. DNA fluorochrome propidium iodide (PI) was used to stain the cells which were then kept for 15 min at 37 °C. FACS Calibre flow cytometer was used to analyse the samples.

P53 = experiment: Apoptotic marker level in HepG2, p53; assay type: cell-based, human; settings: HepG2, at IC50, 24 h; control 42.84
Description: (§2) HepG2 cells were cultured and treated with compound 15d for 24 h. after that cells were collected and washed with PBS, then were collected and lysed by adding it to the extraction buffer containing protease inhibitors (1 ml per 1 × 10^6 cells.) then the lysate was diluted immediately before the assay. Caspase-3, BAX, Bcl-2, and p53 level was measured by using Quantikine-Human active kits (R&D Systems, Inc. Minneapolis, USA) according to the manufacturer protocols.

HER2 = target: T2, HER2 (Homo sapiens, UniProt P04626); experiment: Multi-kinase assay (HTRF), HER2; assay type: biochemical
T2 construct: purchased Sigma
Description: (§3) Different kinases and ATP were obtained from Sigma. The specified kinase and its substrate was incubated with compound for 5 min in buffer solution to start the enzymatic reaction; ATP was then added to the reaction mixture and was maintained for 30 min at room temperature.

BAX = experiment: Apoptotic marker level in HepG2, BAX; assay type: cell-based, human; settings: HepG2, at IC50, 24 h; control 40.62
Description: as §2

Caspase-3 = experiment: Apoptotic marker level in HepG2, Caspase-3; assay type: cell-based, human; settings: HepG2, at IC50, 24 h; control 49.6274
Description: as §2

FGFR = experiment: Multi-kinase assay (HTRF), FGFR; assay type: biochemical
Description: as §3

Bcl-2 = experiment: Apoptotic marker level in HepG2, Bcl-2; assay type: cell-based, human; settings: HepG2, at IC50, 24 h; control 5.761
Description: as §2

T1 sequence (P35968 20-1356): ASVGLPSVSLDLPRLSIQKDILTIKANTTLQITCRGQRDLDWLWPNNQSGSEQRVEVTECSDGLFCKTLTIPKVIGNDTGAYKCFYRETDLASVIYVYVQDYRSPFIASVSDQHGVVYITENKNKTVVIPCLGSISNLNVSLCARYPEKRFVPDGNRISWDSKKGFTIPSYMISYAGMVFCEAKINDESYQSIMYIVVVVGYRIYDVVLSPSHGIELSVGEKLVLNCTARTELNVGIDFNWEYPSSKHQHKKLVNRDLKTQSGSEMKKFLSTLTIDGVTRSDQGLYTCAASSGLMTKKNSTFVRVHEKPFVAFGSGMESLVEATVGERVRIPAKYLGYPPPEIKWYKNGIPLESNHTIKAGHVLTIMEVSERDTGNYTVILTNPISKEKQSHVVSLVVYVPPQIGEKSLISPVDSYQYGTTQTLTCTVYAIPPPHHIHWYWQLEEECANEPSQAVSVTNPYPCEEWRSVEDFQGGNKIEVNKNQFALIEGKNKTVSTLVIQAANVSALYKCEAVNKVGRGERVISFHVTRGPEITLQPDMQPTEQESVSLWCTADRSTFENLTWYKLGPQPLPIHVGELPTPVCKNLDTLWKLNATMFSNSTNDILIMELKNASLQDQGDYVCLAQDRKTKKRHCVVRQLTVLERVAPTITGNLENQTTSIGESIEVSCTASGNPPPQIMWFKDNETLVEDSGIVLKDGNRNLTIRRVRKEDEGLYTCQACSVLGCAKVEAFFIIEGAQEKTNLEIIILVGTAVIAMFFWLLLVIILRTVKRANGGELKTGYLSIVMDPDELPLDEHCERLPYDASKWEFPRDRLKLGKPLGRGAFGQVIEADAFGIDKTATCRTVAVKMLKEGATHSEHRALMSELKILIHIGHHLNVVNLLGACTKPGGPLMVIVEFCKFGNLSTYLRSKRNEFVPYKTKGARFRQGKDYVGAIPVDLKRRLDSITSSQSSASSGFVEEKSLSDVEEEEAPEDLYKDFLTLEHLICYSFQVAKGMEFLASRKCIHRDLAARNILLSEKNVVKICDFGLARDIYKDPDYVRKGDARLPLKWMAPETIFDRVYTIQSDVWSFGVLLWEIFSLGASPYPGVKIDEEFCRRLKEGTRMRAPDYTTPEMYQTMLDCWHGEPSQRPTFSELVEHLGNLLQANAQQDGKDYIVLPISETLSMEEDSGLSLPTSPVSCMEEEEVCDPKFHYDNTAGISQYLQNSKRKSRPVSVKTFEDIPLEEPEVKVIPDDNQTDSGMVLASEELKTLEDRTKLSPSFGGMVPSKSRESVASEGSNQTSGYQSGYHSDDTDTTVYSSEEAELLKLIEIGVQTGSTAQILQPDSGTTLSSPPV
T2 sequence (P04626 23-1255): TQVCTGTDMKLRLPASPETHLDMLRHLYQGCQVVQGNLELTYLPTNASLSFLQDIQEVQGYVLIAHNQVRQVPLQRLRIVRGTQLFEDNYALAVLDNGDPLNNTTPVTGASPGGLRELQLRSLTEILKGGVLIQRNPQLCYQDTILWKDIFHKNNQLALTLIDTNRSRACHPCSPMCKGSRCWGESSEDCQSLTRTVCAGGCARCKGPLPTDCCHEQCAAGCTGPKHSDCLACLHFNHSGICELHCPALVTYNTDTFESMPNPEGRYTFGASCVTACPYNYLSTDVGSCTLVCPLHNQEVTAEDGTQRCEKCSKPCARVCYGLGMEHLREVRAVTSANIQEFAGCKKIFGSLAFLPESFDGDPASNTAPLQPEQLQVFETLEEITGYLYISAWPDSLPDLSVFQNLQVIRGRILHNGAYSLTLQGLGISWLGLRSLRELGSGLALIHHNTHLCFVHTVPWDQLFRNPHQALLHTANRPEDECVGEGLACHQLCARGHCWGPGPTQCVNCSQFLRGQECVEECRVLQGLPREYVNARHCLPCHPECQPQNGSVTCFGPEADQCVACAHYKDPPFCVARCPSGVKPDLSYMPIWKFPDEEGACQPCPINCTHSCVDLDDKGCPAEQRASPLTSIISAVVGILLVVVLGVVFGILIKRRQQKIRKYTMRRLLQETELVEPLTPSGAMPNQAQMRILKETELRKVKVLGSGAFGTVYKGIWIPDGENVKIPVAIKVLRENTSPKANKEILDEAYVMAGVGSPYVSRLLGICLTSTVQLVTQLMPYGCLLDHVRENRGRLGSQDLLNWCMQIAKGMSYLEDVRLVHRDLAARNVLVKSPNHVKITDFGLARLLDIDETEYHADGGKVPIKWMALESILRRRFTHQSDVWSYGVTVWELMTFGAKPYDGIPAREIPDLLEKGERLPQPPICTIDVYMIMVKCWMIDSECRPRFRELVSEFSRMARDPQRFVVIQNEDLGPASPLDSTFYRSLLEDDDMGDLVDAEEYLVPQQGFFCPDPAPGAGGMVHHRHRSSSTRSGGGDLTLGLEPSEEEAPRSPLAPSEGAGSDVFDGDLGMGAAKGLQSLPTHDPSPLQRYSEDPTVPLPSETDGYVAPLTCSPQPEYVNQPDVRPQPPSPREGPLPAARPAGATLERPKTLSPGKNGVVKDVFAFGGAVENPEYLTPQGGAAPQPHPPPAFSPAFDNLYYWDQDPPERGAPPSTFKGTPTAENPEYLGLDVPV

IC50 (MCF-7) [µM]	IC50 (HepG2 [1]) [µM]	IC50 (PC3) [µM]	melting point [°C]	IC50 (VEGFR-2 kinase) [µM]	Structure (SMILES)	IC50 (WI-38) [µM]	other results
58.3 ± 4.87	41.5 ± 3.6	50.7 ± 4.36	236 to 237	0.0671 ± 0.00107	O=C(Nc1ccccc1)Nc1ccc(Oc2nc(Cl)nc3ccccc23)cc1 [Compound 14a, 1-(4-((2-Chloroquinazolin-4-yl)oxy)phenyl)-3-phenylurea]	235 ± 2.43	–
–	–	–	214 to 215	0.0942 ± 0.00153	CCCCNC(=O)Nc1ccc(Oc2nc(Cl)nc3ccccc23)cc1 [Compound 14b, 1-Butyl-3-(4-((2-chloroquinazolin-4-yl)oxy)phenyl)urea]	–	–
47.1 ± 3.59	34.6 ± 2.82	30.3 ± 2.56	244 to 245	0.0673 ± 0.00154	O=C(Nc1ccc(Oc2nc(Cl)nc3ccccc23)cc1)c1ccccc1 [Compound 15a, N-(4-((2-Chloroquinazolin-4-yl)oxy)phenyl)benzamide]	250 ± 2.51	IC50 [2]: 17.4 to 47.1 µM
19.9 ± 1.79	17.4 ± 1.54	25.6 ± 2.31	249 to 250	0.0864 ± 0.00176	O=C(Nc1ccc(Oc2nc(Cl)nc3ccccc23)cc1)c1ccc(Cl)cc1 [Compound 15b, 4-Chloro-N-(4-((2-chloroquinazolin-4-yl)oxy)phenyl)benzamide]	233 ± 2.39	IC50 [2]: 17.4 to 47.1 µM; potency relative to sorafenib potency, MCF-7 (MCF-7; fraction of sorafenib potency): 0.73; potency relative to sorafenib potency, HepG2 (HepG2 [1]; fraction of sorafenib potency): 0.74; potency relative to sorafenib potency, PC3 (PC3; fraction of sorafenib potency): 0.76
62.7 ± 5.12	50.4 ± 4.39	56 ± 1.9	229 to 230	0.0652 ± 0.00136	O=C(Nc1ccc(Oc2nc(Cl)nc3ccccc23)cc1)c1cccc(Cl)c1 [Compound 15c, 3-Chloro-N-(4-((2-chloroquinazolin-4-yl)oxy)phenyl)benzamide]	236 ± 2.39	–
33.4 ± 2.92	24.1 ± 2.12	40.9 ± 3.46	–	0.06 ± 0.00145	O=C(Nc1ccc(Oc2nc(Cl)nc3ccccc23)cc1)c1cccnc1 [Compound 15d, N-(4-((2-Chloroquinazolin-4-yl)oxy)phenyl)nicotinamide]	221 ± 2.55	% Apoptosis Late (HepG2 [3]; HepG2, at IC50, control 0.33): 7.13%; % Apoptosis Early (HepG2 [3]; HepG2, at IC50, control 0.87): 5.33%; % Necrosis (HepG2 [3]; HepG2, at IC50, control 1.17): 2.35%; Total (apoptosis and necrosis) (HepG2 [3]; HepG2, at IC50, control 2.37): 14.81%; fold increase in apoptosis of HepG2 (HepG2 [3]; at IC50, versus control): 10 folds; apoptosis rate of HepG2 (HepG2 [3]; at IC50, control […]): 12.46%; cell cycle phases in which growth of HepG2 is stopped (HepG2 [4]): both G2/M and pre G1 phases; IC50 [2]: 17.4 to 47.1 µM; P53 level (P53): 415.027 pg/mL; IC50 (HER2): 0.253 ± 0.0016 µM; BAX level (BAX): 395.04 pg/mL; Casp3 level (Caspase-3): 561.427 pg/mL; IC50 (FGFR): 0.381 ± 0.0018 µM; Bcl-2 level (Bcl-2): 1.385 pg/mL
–	–	–	248 to 249	0.0936 ± 0.00182	O=C(Nc1ccccc1)Nc1ccc(Oc2nc3ccccc3nc2Cl)cc1 [Compound 19a, 1-(4-((3-Chloroquinoxalin-2-yl)oxy)phenyl)-3-phenylurea]	–	–
105 ± 7.57	73.4 ± 5.95	84.4 ± 6.68	227 to 228	0.0752 ± 0.00157	CCCCNC(=O)Nc1ccc(Oc2nc3ccccc3nc2Cl)cc1 [Compound 19b, 1-Butyl-3-(4-((3-chloroquinoxalin-2-yl)oxy)phenyl)urea]	230 ± 2.51	–
–	–	–	258 to 259	0.108 ± 0.00225	O=C(Nc1ccc(Oc2nc3ccccc3nc2Cl)cc1)c1ccccc1 [Compound 20a, N-(4-((3-Chloroquinoxalin-2-yl)oxy)phenyl)benzamide]	–	–
–	–	–	264 to 265	0.114 ± 0.00283	O=C(Nc1ccc(Oc2nc3ccccc3nc2Cl)cc1)c1ccc(Cl)cc1 [Compound 20b, 4-Chloro-N-(4-((3-chloroquinoxalin-2-yl)oxy)phenyl)benzamide]	–	–
135 ± 9.02	144 ± 9.51	157 ± 10	243 to 244	0.0866 ± 0.00175	O=C(Nc1ccc(Oc2nc3ccccc3nc2Cl)cc1)c1cccc(Cl)c1 [Compound 20c, 3-Chloro-N-(4-((3-chloroquinoxalin-2-yl)oxy)phenyl)benzamide]	402.9 ± 3.26	–
246 ± 13.6	221 ± 11.4	> 300	219 to 220	0.0696 ± 0.00116	O=C(Nc1ccc(Oc2nc3ccccc3nc2Cl)cc1)c1cccnc1 [Compound 20d, N-(4-((3-Chloroquinoxalin-2-yl)oxy)phenyl)nicotinamide]	460.7 ± 4.04	–
–	–	–	175 to 176	0.124 ± 0.00378	O=C(Nc1ccccc1)Nc1ccc(Oc2ccccc2[N+](=O)[O-])cc1 [Compound 22a, 1-(4-(2-Nitrophenoxy)phenyl)-3-phenylurea]	–	–
–	–	–	163 to 164	0.107 ± 0.002	CCCCNC(=O)Nc1ccc(Oc2ccccc2[N+](=O)[O-])cc1 [Compound 22b, 1-Butyl-3-(4-(2-nitrophenoxy)phenyl)urea]	–	–
234 ± 13.2	153 ± 10.8	221 ± 12.9	197 to 198	0.0748 ± 0.00167	O=C(Nc1ccc(Oc2ccccc2[N+](=O)[O-])cc1)c1ccccc1 [Compound 23a, N-(4–(2-Nitrophenoxy)phenyl)benzamide]	758.2 ± 5.15	–
–	–	–	169 to 170	0.105 ± 0.0025	O=C(Nc1ccc(Oc2ccccc2[N+](=O)[O-])cc1)c1cccc(Cl)c1 [Compound 23b, 3-Chloro-N-(4–(2-nitrophenoxy)phenyl)benzamide]	–	–
–	–	–	160 to 161	0.119 ± 0.00316	O=C(Nc1ccc(Oc2ccccc2[N+](=O)[O-])cc1)c1cccnc1 [Compound 23c, N-(4–(2-Nitrophenoxy)phenyl)nicotinamide]	–	–
12.4 ± 0.74	14.6 ± 1.1	16.3 ± 1.1	–	–	COc1cccc2c1C(=O)c1c(O)c3c(c(O)c1C2=O)C[C@@](O)(C(=O)CO)C[C@@H]3O[C@H]1C[C@H](N)[C@H](O)[C@H](C)O1 [Doxorubicin, reference compound]	–	–
–	–	–	–	–	C#Cc1cccc(Nc2ncnc3cc(OCCOC)c(OCCOC)cc23)c1 [Erlotinib, reference compound]	–	IC50 (FGFR): 0.034 ± 0.00092 µM
14.5 ± 1.68	12.9 ± 0.85	19.4 ± 1.34	–	–	CNC(=O)c1cc(Oc2ccc(NC(=O)Nc3ccc(Cl)c(C(F)(F)F)c3)cc2)ccn1 [Sorafenib, reference compound]	–	–
